Tests used:
human ASM (SMPD1)-GFP = human ASM (SMPD1)-GFP (Homo sapiens (Human), UniProt P17405); test: ASM activity assay (Amplex Red SMase kit, lysates of treated cells); format: cell-based; conditions: 5 μM compound for 48 h
Procedure: (§1) FIG. 6A-C. (A) Dose response curves quantifying the extent of KRASG12V and LactC2 mislocalization after 48 h treatment with compounds. Mislocalization was quantified using Manders coefficients as the fraction of mCherry-CAAX co-localizing with mGFP-KRASG12V or GFP-LactC2. (B) ASM activity in cell stably expressing GFP-tagged SMPD1 treated with DMSO or 5 μM compound for 48 h. (C) Representative western blots and quantitation of SMPD1-GFP levels in cells treated with 5 μM compounds for 48 h. (D) Representative confocal images of MDCK cells stably co-expressing mGFP-KRASG12V and mCherry-CAAX treated with 10 μM compound 6 or 1 μM of compounds 12f (NY0244), 12h (NY0331) or 22 (NY0335) for 48 h (-ASM), then incubated with recombinant ASM in the continued presence of drugs for a further 60 min (+ASM). Mislocalization was quantified using Manders coefficients as the fraction of mCherry-CAAX co-localizing with mGFP-KRASG12V.
ASM Activity Assay. The ASM activity assay was performed with Amplex Red SMase Assay Kit (A12220; Invitrogen; Carlsbad, CA) according to the manufacturer's instructions. […] The plate was further incubated in the dark in 37° C. for 60 min, and the fluorescence was measured using BioTek Synergy H1 microplate reader (excitation λ=540 nm, emission λ=590 nm). […]

[1] = test system: MAPK pathway inhibitors such as trametinib; test: Combination with MAPK pathway inhibitors; conditions: preliminary findings
SMPD1-GFP (ASM) = SMPD1-GFP (ASM) (Homo sapiens (Human), UniProt P17405); test: Western blot of SMPD1-GFP levels; format: cell-based; conditions: 5 μM compounds for 48 h
Procedure: as §1
Western Blotting. […] Signals were detected by enhanced chemiluminescence (Thermo Fisher Scientific) and imaged using a FluorChemQ imager (Alpha Inotech). Quantification of intensities was performed using FluorChemQ software.

BxPC-3 tumors = test: In vivo tumor growth assay (xenograft); design: species or system nu/nu mice; conditions: 12.5 mg/kg intraperitoneally
Procedure: FIG. 4. Inhibition of tumor growth in vivo by fendiline. Nu/nu mice implanted with BxPC-3 or MIAPaCa-2 tumors were treated with vehicle (DMSO) or fendiline (12.5 mg/kg) intraperitoneally and tumor sizes were measured with an external caliper every 3-4 days. Time and fendiline treatment affected MiaPaCa2 xenograft growth (2-way ANOVA, p=0.027).
Early passage BxPC-3 or MIAPaCa-2 cells were harvested, and 2-3X106 cells were implanted into the right flanks of nu/nu mice. The animals were randomized into control and treated groups (10 mice per group). Tumor volume (V) was measured with an external caliper every 3-4 days and it was calculated as V=0.52 (length×width2). Drug treatment was initiated 4 days after tumor implantation. Drugs were injected daily intraperitoneally (at doses indicated) for 5 days, with 2 days of no treatment in between. All treatments were continued until any of the subcutaneous tumors reached 1500 mm3 in volume or for 6 weeks (whichever was first), when all the animals were sacrificed and the tumors removed.

human ASM (SMPD1)-GFP, sequence (P17405 47-631): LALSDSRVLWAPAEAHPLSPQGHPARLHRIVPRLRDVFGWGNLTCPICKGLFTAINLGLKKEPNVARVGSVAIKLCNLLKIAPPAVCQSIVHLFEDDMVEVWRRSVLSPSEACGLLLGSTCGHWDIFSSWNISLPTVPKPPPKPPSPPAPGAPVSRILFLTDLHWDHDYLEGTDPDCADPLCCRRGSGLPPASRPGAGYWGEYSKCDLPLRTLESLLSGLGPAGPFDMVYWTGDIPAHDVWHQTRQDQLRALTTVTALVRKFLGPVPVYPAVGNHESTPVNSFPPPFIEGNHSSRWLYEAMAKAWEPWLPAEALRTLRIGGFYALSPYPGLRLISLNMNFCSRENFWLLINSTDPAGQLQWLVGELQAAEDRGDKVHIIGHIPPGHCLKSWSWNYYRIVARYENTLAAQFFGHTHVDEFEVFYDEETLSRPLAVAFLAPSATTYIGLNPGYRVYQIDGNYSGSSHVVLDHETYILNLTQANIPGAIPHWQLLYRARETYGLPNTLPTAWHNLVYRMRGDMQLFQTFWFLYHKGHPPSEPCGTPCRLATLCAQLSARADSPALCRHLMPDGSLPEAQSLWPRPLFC

SMILES	inhibition of ASM (human ASM (SMPD1)-GFP)	synergy with MAPK pathway inhibitors [1]	cellular levels of ASM (SMPD1-GFP) (SMPD1-GFP (ASM))	BxPC-3 xenograft growth (BxPC-3 tumors)
COc1ccc([C@@H](C)N(CC=C(c2ccccc2)c2ccccc2)CCN2CCCC2)cc1 [NY0331, (R)-N-(1-(4-methoxyphenyl)ethyl)-3,3-diphenyl-N-(2-(pyrrolidin-1-yl)ethyl)prop-2-en-1-amine]	most potent	synergizes	reduced the levels of ASM	–
COc1ccc([C@@H](C)N(CC=C(c2ccccc2)c2ccccc2)CCN2CCN(C)CC2)cc1 [NY0244, (R)-N-(1-(4-methoxyphenyl)ethyl)-N-(2-(4-methylpiperazin-1-yl)ethyl)-3,3-diphenylprop-2-en-1-amine]	–	–	reduced the levels of ASM	–
CC(NCCC(c1ccccc1)c1ccccc1)c1ccccc1 (centres unmarked) [Fendiline]	–	–	–	No significant effects
